Here are results for six molecules from patent US7687508B2, “Cyclic derivatives as modulators of chemokine receptor activity” (Bristol-Myers Squibb Company, priority 2006, dated 2010).

As usually defined, the IC50 is the concentration that gives 50% inhibition. Broadly, the inhibition is how much of the control response was suppressed. A word on the AUC: it is the area under the concentration-time curve, a measure of exposure. The low end stands for less exposure, the high end for more exposure. In general, clearance refers to the rate of elimination divided by the concentration. Low values mean inefficient removal, high ones efficient removal. In general, bioavailability refers to the share of a dose that reaches the circulation, judged against a reference dose that is usually intravenous. Low readings indicate little systemic uptake, high ones much systemic uptake. The Papp is a coefficient for how fast a substance crosses the barrier.

For data set [1], the target named is T1, human CCR2 (Homo sapiens, UniProt P41597).
T1 sequence (P41597 1-360 isoform P41597-2): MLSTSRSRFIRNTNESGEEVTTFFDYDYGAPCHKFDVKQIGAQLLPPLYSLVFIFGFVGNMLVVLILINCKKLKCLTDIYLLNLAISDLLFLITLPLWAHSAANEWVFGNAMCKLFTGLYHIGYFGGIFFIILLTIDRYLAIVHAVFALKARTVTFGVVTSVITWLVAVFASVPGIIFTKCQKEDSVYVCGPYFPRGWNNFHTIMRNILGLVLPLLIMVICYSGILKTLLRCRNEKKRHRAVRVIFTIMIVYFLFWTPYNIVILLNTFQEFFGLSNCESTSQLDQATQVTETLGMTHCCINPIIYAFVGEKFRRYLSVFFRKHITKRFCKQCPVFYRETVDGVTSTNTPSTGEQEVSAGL
Kind of data set: Human peripheral blood mononuclear cell binding (CCR2 binding), 125I-human MCP-1 tracer. Further details: hPBMCs were isolated from human leukopak (Biological Specialty Inc.); endogenous in cells; host or cells: human peripheral blood mononuclear cells from leukopak (Biological Specialty Inc.). Conditions: hPBMCs, 125I-MCP-1; figure in parentheses in the cell not copied (count of determinations); read-out: CCR2 Binding IC50. The protocol:
See also: Yoshimura et al., J. Immunol. 1990, 145, 292. The human CCR2 binding assay was established with human peripheral blood mononuclear cells (hPBMCs) using ^125I-human MCP-1 as the tracer ligand. hPBMCs were isolated from human leukopak (Biological Specialty Inc.) using a standard protocol with Ficoll-Hypaque (Mediatech Cellgro). Isolated hPBMCs were washed and diluted to 1×10^7/ml in binding buffer (RPMI-1640, 0.1% BSA, 20 mM Hepes, pH 7.4). ^125I-MCP-1 (NEN/Perk Elmer) was diluted to 0.45 nM in binding buffer. The compound was diluted in binding buffer at 3-fold the final concentrations used in the binding assay. The binding assay was performed using a 96-well filter plate (Millipore). Total ^125I-MCP-1 binding was assessed as follows: to each reaction of a total volume of 150 μl were added 5×10^5 cells, 0.15 nM […], and compound such that the final concentration ranged from 0 to 100 nM. The plate was incubated at room temperature for 30 minutes followed by three washes with RPMI-1640, 0.1% BSA, 0.4 M NaCl, 20 mM Hepes, pH 7.4 using a vacuum manifold filtration (Millipore). After washing, the plate was air-dried for 60 minutes at room temperature. This was followed by adding 25 μl of Microscint 20 into each well. The plate was sealed and counted on the Trilux for 1 minute. Non-specific binding was determined in the presence of 300 nM cold MCP-1 (PeproTech Inc.). Specific 1-MCP-1 was calculated as the difference between total and non-specific binding. All conditions were tested in duplicate.

The target of data set [2] is T1, human CCR2. The data set is described as follows: CCR2 chemotaxis (MCP-1-induced, THP-1 cells). Also on record: hPBMCs were isolated from human leukopak (Biological Specialty Inc.); endogenous in cells; host or cells: human peripheral blood mononuclear cells from leukopak (Biological Specialty Inc.). The class given is cell-based. How it is done:
The human CCR2 chemotaxis assay was conducted with the human monocytic cell line, THP-1. THP-1 cells were first labeled with the fluorescent dye Calcein-AM in phenol red-free, BSA-free RPMI-1640 (pH 7.4) at 37° C. for 30 minutes with gentle mixing every 15 minutes. The labeled cells were then washed and re-suspended at 1×10^5/ml in chemotaxis buffer (phenol red-free RPMI-1640, 0.1% BSA, pH 7.4). The test compound was diluted in chemotaxis buffer such that the final assay concentration ranged from 0.01 nM to 1 μM. […] To perform the assay, an equal volume of test compound dilutions was mixed with an equal volume of labeled THP-1 cells (Mixture 1), and an equal volume of test compound dilutions was mixed with an equal volume of diluted MCP-1 ligand (Mixture 2). Both mixtures were incubated independently at 37° C. for 10 minutes followed by gentle mixing. MCP-1-induced chemotaxis was then measured in a chemotaxis plate (Becton Dickinson) by placing 50 μl of Mixture 1 in the top chamber and 225 μl of Mixture 2 in the bottom chamber. The plate was covered with a lid and incubated at 37° C. for 30 minutes. 30 minutes later, the plate was read on a Cytofluor. All conditions were tested in duplicate. […] The inhibition achieved by graded concentrations of test compound was calculated as a percentage of the compound-free MCP-1 control.

Data set [3] concerns the target human cardiac sodium channel, SCN5A (Nav1.5) (Homo sapiens, UniProt Q14524). Kind of data set: Sodium channel patch clamp (whole-cell, HEK-293). Particulars: HEK-293 cells expressing human cardiac sodium channel SCN5A, 30,000 nM, read-out: Na+ channel patch clamp (% inhibition). The class given is cell-based. How it is done: The compound was tested at a protein-free aqueous buffer. For determining steady state inhibition, sodium currents were elicited every 5 seconds using the following voltage protocol: cells were held at a potential of −90 mV and stepped to −20 mV for 60 ms. Effects were calculated by measuring inhibition of peak current during the test pulse to −20 mV. Rate-dependence of inhibition was assessed by stimulation at frequencies of 1 Hz and 4 Hz.
Background: Patch clamp records ionic current or voltage across a cell membrane.

Data set [4] can be described thus: Single-dose pharmacokinetics in monkeys. The class given is in vivo. Particulars: male, cynomolgus monkey, plasma, dose per compound (mg/kg); for AUC: PO; for clearance: IV; for bioavailability: oral bioavailability. The source says: (1500-2000×g) to obtain plasma.
Data set [5] can be described thus: Single-dose pharmacokinetics in rats. The class given is in vivo. Conditions: male, Sprague-Dawley, plasma, rat, dose per compound (mg/kg); for AUC: PO; for clearance: IV; for bioavailability: oral bioavailability. The protocol: (1500-2000×g) to obtain plasma. […] Plasma samples, obtained by centrifugation at 4° C.
Data set [6] has as its target T2, hERG (Homo sapiens, UniProt Q12809).
T2 construct: expressed in transfected cells
The data set is described as follows: hERG patch clamp (whole-cell, HEK-293). The class given is cell-based. Conditions: for inhibition at 10000 nM: pH 7.4, 10,000 nM; for inhibition at 30000 nM: pH 7.4, 30,000 nM.

The target in data set [7] is T2, hERG. The data set is described as follows: hERG flux (Tl+ flux, FLIPR) in HEK293 cells. The class given is cell-based. Conditions: HEK293 cells stably expressing hERG. How it is done: HEK293 cells stably-expressing hERG channels were grown (37° C., 5% CO2) in Dulbecco's Modified Eagle's Media supplemented with 10% Sigma fetal bovine serum, non-essential amino acids, 2 mM L-glutamine and 500 μg/ml G418, at incubator.
A 2 mM stock of BTC-AM dye (Molecular Probes, Eugene, Oreg.) was prepared in 100% DMSO and then added 1:1 to 10% (w/v) pluronic acid in DMSO on the day of assay. The dye was then diluted in hERG external EP buffer (140 mM NaCl, 4.0 mM KCl, 1.8 mM CaCl2, 1.0 mM MgCl2, 10 mM HEPES, pH 7.3 and 10 mM glucose; all buffer components obtained from Sigma Chemical). […] Cells are incubated at 21° C. for 45 minutes.
These compounds were then serially-diluted at a 1:2 ratio in DMSO in columns 1-10 and 11-20 of a 384-well plate. Assay-ready plates were generated by stamping 2.5 μl from the DMSO serially diluted plate, which was prepared on the Velocity 11 BioCel. Aqueous plates were created by adding 48 μl of EP buffer and then were diluted 30-45 minutes before the assay was read on the FLIPR. […] Final DMSO concentration in the assay is 1%. Assay-ready aqueous plates were prepared and diluted on a Cybio liquid handler.
Data collection proceeded every second for 48 seconds, and then continued every three seconds for an additional 2 minutes.
The dynamic range of the assay was determined from blanks and totals wells. The totals wells (columns 21 and 22) define maximal hERG activation for the plate (no test compound present), and the blanks wells (columns 23 and 24) define 100% hERG inhibition. […] Raw data points in each sample well were first corrected for cell/signal variation, negative control (blanks) background, and normalized to the positive controls (totals) using the online FLIPR software. Test compound concentration response curves for the hERG Tl^+ flux data were then fit using Excel Fit (ID Business Solutions Limited, Surrey, UK) with a single-site logistic equation, Y=A+((B−A)/1+((C/X)^D))) where A=maximal inhibition. Data were analyzed by fitting maximum amplitudes of change in fluorescence for Tl^+ flux for a given condition of test compound.
On the technique in general: Block of hERG is tested as a sign of cardiac risk.

The nature of data set [8]: Parallel Artificial Membrane Permeability Assay (PAMPA). The class given is in vitro ADME. Particulars: apical and basolateral pH 7.4. The protocol:
All experiments are conducted in triplicate determinations.
(In general: The PAMPA barrier holds no transporters, so it reflects passive diffusion.)

T2 sequence (Q12809 whole entry): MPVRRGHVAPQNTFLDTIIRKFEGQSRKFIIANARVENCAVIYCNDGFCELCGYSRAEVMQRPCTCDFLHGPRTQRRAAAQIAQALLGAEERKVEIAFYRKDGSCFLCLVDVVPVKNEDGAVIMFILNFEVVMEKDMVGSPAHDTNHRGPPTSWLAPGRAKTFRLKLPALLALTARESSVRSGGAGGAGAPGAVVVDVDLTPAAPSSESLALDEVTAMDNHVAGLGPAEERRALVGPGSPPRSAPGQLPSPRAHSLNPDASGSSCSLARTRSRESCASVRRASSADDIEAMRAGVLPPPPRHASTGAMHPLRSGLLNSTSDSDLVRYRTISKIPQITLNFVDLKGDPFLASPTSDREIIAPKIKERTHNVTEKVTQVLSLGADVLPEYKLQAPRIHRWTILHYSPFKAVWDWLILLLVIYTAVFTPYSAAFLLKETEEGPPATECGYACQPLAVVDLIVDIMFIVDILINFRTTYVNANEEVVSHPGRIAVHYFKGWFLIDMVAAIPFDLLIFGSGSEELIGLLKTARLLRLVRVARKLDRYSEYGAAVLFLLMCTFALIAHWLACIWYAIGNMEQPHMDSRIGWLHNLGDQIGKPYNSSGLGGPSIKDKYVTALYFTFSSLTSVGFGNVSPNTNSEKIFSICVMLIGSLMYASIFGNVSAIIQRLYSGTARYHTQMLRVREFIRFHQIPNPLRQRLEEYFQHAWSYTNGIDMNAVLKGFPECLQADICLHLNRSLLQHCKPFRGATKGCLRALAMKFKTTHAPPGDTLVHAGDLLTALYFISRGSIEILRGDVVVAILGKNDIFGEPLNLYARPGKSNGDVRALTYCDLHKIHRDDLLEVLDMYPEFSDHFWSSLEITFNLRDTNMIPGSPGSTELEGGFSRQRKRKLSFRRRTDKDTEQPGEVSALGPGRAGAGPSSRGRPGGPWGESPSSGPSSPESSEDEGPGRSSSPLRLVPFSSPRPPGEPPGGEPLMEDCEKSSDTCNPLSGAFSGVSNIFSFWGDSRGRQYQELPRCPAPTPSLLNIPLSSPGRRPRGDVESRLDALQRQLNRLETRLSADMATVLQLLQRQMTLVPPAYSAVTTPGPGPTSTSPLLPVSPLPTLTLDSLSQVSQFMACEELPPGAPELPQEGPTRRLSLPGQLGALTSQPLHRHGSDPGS
Sequence of human cardiac sodium channel, SCN5A (Nav1.5) (Q14524 whole entry): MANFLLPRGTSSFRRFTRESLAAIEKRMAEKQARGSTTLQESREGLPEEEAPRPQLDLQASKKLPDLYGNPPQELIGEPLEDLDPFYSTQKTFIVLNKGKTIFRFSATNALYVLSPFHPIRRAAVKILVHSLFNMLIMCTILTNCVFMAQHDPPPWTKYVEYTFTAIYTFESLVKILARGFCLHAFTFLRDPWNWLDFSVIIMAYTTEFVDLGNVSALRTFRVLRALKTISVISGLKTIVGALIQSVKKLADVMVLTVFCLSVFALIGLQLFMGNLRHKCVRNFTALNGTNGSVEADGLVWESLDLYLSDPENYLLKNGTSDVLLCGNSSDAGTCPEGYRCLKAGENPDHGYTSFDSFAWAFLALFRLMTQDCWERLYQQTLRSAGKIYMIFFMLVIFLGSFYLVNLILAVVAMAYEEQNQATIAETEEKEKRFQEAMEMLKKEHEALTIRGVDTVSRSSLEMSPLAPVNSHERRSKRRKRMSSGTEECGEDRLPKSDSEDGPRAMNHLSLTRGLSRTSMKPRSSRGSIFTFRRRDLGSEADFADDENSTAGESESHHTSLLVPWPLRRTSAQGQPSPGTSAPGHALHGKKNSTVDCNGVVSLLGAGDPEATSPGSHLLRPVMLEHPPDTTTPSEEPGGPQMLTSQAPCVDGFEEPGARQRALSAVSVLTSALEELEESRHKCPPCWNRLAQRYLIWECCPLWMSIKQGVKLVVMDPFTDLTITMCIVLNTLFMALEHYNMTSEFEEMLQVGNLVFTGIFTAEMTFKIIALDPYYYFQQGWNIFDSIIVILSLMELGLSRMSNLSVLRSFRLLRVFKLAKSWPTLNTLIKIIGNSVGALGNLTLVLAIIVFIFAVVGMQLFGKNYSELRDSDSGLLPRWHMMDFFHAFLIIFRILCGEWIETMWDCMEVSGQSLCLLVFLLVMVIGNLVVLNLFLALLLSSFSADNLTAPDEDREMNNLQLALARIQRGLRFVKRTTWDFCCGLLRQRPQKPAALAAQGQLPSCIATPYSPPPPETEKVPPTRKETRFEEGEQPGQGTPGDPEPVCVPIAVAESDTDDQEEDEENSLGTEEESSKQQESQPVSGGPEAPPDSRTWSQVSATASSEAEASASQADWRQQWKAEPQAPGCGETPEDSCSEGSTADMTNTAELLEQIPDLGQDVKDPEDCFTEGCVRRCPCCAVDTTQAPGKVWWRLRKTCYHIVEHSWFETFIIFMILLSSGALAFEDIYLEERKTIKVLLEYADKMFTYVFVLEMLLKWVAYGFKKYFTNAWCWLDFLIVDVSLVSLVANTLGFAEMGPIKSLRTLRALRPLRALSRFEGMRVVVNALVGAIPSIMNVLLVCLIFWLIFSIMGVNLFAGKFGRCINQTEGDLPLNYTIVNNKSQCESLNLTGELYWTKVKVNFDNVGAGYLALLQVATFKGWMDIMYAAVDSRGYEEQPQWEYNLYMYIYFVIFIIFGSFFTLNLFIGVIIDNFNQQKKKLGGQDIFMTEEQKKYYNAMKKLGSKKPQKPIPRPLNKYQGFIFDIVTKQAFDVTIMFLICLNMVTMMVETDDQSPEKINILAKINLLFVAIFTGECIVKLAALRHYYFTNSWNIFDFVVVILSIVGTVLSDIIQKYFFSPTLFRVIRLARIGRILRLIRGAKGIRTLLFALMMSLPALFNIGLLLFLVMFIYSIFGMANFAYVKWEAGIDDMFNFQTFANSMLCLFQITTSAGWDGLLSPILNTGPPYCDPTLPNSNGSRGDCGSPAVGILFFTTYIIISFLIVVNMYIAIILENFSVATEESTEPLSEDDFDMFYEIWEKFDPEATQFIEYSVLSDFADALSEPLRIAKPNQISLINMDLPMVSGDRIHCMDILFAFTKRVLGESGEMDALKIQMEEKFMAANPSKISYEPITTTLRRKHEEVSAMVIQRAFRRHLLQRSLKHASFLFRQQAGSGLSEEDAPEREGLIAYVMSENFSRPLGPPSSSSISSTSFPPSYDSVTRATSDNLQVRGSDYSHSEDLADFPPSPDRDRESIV

Take `CC(=O)N[C@@H]1C[C@H](N(C)C)CC[C@@H]1N1CC[C@H](Nc2ncnc3ccc(C(F)(F)F)cc23)C1=O` [Example 8, N-((1R,2S,5R)-5-(dimethylamino)-2-((3S)-2-oxo-3-((6-(trifluoromethyl)-4-quinazolinyl)amino)-1-pyrrolidinyl)cyclohexyl)acetamide]: the IC50 was 3.58 ± 0.78 nM at human CCR2 [1], 4.09 ± 1.21 nM on human CCR2 [2] and over 80000 nM at hERG [7]. The inhibition at 30000 nM in data set [3] was determined as 11%; at hERG [6], 37%. Besides, the AUC in data set [4] was determined as 0.558 µM·h; in data set [5], 7.28 µM·h. The inhibition at 10000 nM against hERG [6] came to 18%.
As for `CO[C@@H]1CC[C@H](N2CC[C@H](Nc3ncnc4ccc(C(F)(F)F)cc34)C2=O)[C@H](CNC(C)=O)C1` [Example 15, N-(((1S,2S,5R)-5-methoxy-2-((3S)-2-oxo-3-((6-(trifluoromethyl)-4-quinazolinyl)amino)-1-pyrrolidinyl)cyclohexyl)methyl)acetamide], the 50% inhibitory concentration (IC50) was 3.34 ± 0.71 nM on human CCR2 [1], 0.92 ± 0.67 nM on human CCR2 [2] and over 80000 nM at hERG [7]. The clearance was found to be 28 mL/min/kg in data set [4] and 23 mL/min/kg in data set [5]. Further, the AUC worked out at 0.333 µM·h in data set [4] and 16.2 µM·h in data set [5]. For the same molecule, the bioavailability in data set [4] was 19%; in data set [5], 93%. At hERG [6], this molecule showed an inhibition at 30000 nM of 29%. Further, testing at 100000 nM on hERG [6] (pH 7.4, 100,000 nM) gave an inhibition of 47%. This molecule gave a Papp at 4 h, 100 µM in data set [8] of 18.6 ×10⁻⁶ cm/s.
Turning to `CC(C)(C)N[C@@H]1CC[C@H](N2CC[C@H](NC(=O)c3ccnc(C(C)(C)C)n3)C2=O)[C@H](NS(C)(=O)=O)C1` [Example 11, 2-tert-butyl-N—((S)-1-((1S,2R,4R)-4-(tert-butylamino)-2-(methylsulfonamido)cyclohexyl)-2-oxopyrrolidin-3-yl)pyrimidine-4-carboxamide], on human CCR2 [1], the IC50 amounted to 1.91 ± 0.52 nM. The molecule further displayed an IC50 against human CCR2 [2] of 0.92 nM. In data set [5], this molecule gave a clearance of 56 mL/min/kg, an AUC of 3.04 µM·h and a bioavailability of 52%. The same molecule registered an inhibition at 30000 nM against hERG [6] of 15%. This molecule had an IC50 on hERG [7] of over 80000 nM. The molecule also had an apparent permeability coefficient (Papp) at 4 h, 100 µM in data set [8] of 35 ×10⁻⁶ cm/s.
With `CCC(=O)N[C@@H]1C[C@H](NC(C)(C)C)CC[C@@H]1N1CC[C@H](NC(=O)c2ccnc(C(C)(C)C)n2)C1=O` [Example 12, 2-tert-butyl-N-((3S)-1-((1S,2R,4R)-4-(tert-butylamino)-2-(propionylamino)cyclohexyl)-2-oxo-3-pyrrolidinyl)-4-pyrimidinecarboxamide], on human CCR2 [1], the concentration for half-maximal inhibition (IC50) stood at 4.49 ± 1.35 nM. The AUC in data set [4] was 0.413 µM·h. In data set [5], this molecule gave a clearance of 59 mL/min/kg, an AUC of 5.23 µM·h and a bioavailability of 91%. On hERG [6], testing at 10000 nM gave an inhibition of 6% and at 30000 nM the inhibition was 7%. At hERG [7], this molecule returned an IC50 of over 80000 nM. In data set [8], this molecule registered an apparent permeability (Papp) at 4 h, 100 µM of 23.9 ×10⁻⁶ cm/s.
For `CC(C)(C)N[C@@H]1CC[C@H](N2CC[C@H](Nc3ncnc4cnc(C(C)(C)C)nc34)C2=O)[C@H](NS(C)(=O)=O)C1` [Example 13, N-((1R,2S,5R)-5-(tert-butylamino)-2-((3S)-3-((6-tert-butylpyrimido[5,4-d]pyrimidin-4-yl)amino)-2-oxo-1-pyrrolidinyl)cyclohexyl)methanesulfonamide], the IC50 was 4.02 ± 1.31 nM at human CCR2 [1], 0.49 nM on human CCR2 [2] and over 80000 nM against hERG [7]. Also, the AUC worked out at 0.263 µM·h in data set [4] and 10.5 µM·h in data set [5]. Moreover, in data set [5], the clearance amounted to 26 mL/min/kg. Also, in data set [5], the bioavailability came to 88%. Also, 30000 nM produced 10% inhibition against hERG [6]. In data set [8], this molecule yielded a Papp at 4 h, 100 µM of 54.1 ± 6.3 ×10⁻⁶ cm/s.
With `CN[C@@H]1CC[C@H](N2CC[C@H](Nc3ncnc4ccc(C(F)(F)F)cc34)C2=O)[C@H](NC(C)=O)C1` [Example 3, N-((1R,2S,5R)-5-(methylamino)-2-((3S)-2-oxo-3-((6-(trifluoromethyl)-4-quinazolinyl)amino)-1-pyrrolidinyl)cyclohexyl)acetamide], the concentration for half-maximal inhibition (IC50) on human CCR2 [1] came out at 4.74 ± 0.58 nM. In data set [3], the inhibition at 30000 nM came to 3%. In data set [4], this molecule displayed a clearance of 15 mL/min/kg, an AUC of 2.05 µM·h and a bioavailability of 91%. Besides, on hERG [6], the inhibition at 10000 nM was 6% and the inhibition at 30000 nM amounted to 24%. In addition, at hERG [7], the IC50 was over 80000 nM.
